Results reported in ChEMBL document CHEMBL1157368, “Mass spectrometry-based systems approach for identification of inhibitors of Plasmodium falciparum fatty acid synthase” (Antimicrob Agents Chemother, 2007).
Active and inactive are the calls of the source. The calls are words filed in the database; no cut-off is given here.

Tests used:
[1] = molecular target: T1, Fatty acid synthase (Plasmodium falciparum) (UniProt Q965D7); assay: Inhibition of Plasmodium falciparum FabZ assessed as trans-2-octenoyl-acyl carrier protein level by MALDI-TOF mass spectrometry
T1 sequence (whole entry): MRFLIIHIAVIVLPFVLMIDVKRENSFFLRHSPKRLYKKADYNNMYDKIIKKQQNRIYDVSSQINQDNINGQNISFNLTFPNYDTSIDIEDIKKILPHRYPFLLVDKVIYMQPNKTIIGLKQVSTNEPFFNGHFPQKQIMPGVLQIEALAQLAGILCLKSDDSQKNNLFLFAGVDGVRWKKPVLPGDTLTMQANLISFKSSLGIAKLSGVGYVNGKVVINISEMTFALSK

[2] = test system: Plasmodium falciparum; assay: Antiparasitic activity against Plasmodium falciparum; format: functional, organism-based
[3] = test system: Plasmodium falciparum; assay: Inhibition of Plasmodium falciparum FabB/FabF assessed as C6-acyl carrier protein level by MALDI-TOF mass spectrometry
[4] = molecular target: T2, Enoyl-acyl-carrier protein reductase (Plasmodium falciparum, UniProt Q965D5); assay: Inhibition of Plasmodium falciparum recombinant FabI
T2 sequence (Q965D5 whole entry): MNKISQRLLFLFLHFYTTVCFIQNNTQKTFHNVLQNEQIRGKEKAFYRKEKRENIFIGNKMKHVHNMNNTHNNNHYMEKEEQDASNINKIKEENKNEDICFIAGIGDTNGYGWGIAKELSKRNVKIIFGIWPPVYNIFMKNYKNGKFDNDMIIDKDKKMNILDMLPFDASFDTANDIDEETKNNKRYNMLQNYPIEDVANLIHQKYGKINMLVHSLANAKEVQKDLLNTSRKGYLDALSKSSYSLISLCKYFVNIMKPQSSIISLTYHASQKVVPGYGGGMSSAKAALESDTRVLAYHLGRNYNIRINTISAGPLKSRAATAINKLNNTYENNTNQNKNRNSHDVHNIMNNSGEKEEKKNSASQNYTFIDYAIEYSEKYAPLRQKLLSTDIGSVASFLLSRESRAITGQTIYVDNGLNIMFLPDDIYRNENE

[5] = test system: Plasmodium falciparum; assay: Antiparasitic activity against Plasmodium falciparum in RBCs; format: functional, organism-based
[6] = Inhibition of Plasmodium falciparum recombinant FabI A217V mutant

O=C(CC(=O)C(F)(F)F)c1ccc([N+](=O)[O-])cc1
Activity [1]: Active

Oc1ccc(Cl)cc1Oc1ccc(Cl)c2cccnc12
Activity [1]: Active

C/C=C/C/C=C/CCC(=O)[C@H]1O[C@H]1C(N)=O [CERULENIN]
IC50 [2]: 20000 nM
Activity [3]: Active

Oc1cc(Cl)ccc1Oc1ccc(Cl)cc1Cl [TRICLOSAN]
IC50 [4]: 70 nM
IC50 [5]: 700 nM
Ki [6]: 232 nM
